Laboratory results published in ChEMBL document CHEMBL6103565, “Current strategies in design and synthesis of antifungals hybrid and chimeric diazine derivatives” (Bioorg Med Chem, 2025).
Values after ≈ are worked out from the molar mass of the structure shown.

What was measured:
[1] = tested on: Syncephalastrum racemosum; assay: Antifungal activity against Syncephalastrum racemosum assessed as zone of inhibition; format: functional
Candida albicans [2] = assay: Antifungal activity against Candida albicans ATCC 10231 assessed as zone of inhibition incubated for 24 hrs by disc diffusion method; format: functional
Aspergillus fumigatus = assay: Antifungal activity against Aspergillus fumigatus assessed as zone of inhibition; format: functional
Candida albicans [3] = assay: Antifungal activity against Candida albicans; format: functional
Geotrichum candidum = assay: Antifungal activity against Geotrichum candidum; format: functional
Candida albicans [4] = assay: Antifungal activity against Candida albicans MTCC 4748 assessed as inhibition of fungal growth incubated for 24 hrs; format: functional
Candida albicans [5] = assay: Antifungal activity against Candida albicans MTCC 7315 assessed as inhibition of fungal growth incubated for 24 hrs; format: functional
Pichia kudriavzevii = assay: Antifungal activity against Pichia kudriavzevii MTCC 3020 assessed as inhibition of fungal growth incubated for 24 hrs; format: functional
Candida parapsilosis = assay: Antifungal activity against Candida parapsilosis MTCC 1744 assessed as inhibition of fungal growth incubated for 24 hrs; format: functional; conditions: Lodderomyces parapsilosis
Candida albicans [6] = assay: Antifungal activity against Candida albicans MTCC 3018 assessed as inhibition of fungal growth incubated for 24 hrs; format: functional
Candida albicans [7] = assay: Antifungal activity against Candida albicans MTCC 3017 assessed as inhibition of fungal growth incubated for 24 hrs; format: functional
Candida albicans [8] = assay: Antifungal activity against Candida albicans MTCC 227 assessed as inhibition of fungal growth incubated for 24 hrs; format: functional
Nakaseomyces glabratus = assay: Antifungal activity against Candida glabrata MTCC 3019 assessed as inhibition of fungal growth incubated for 24 hrs; format: functional
Candida albicans [9] = assay: Antifungal activity against Candida albicans MTCC 1637 assessed as inhibition of fungal growth incubated for 24 hrs; format: functional
Candida albicans [10] = assay: Antifungal activity against azole-resistant Candida albicans ATCC 18804 assessed as fungal growth inhibition incubated for 24 hrs by CLSI protocol based broth microdilution method; format: functional
Aspergillus niger [11] = assay: Antifungal activity against Aspergillus niger assessed as zone of inhibition; format: functional
Candida albicans [12] = assay: Antifungal activity against Candida albicans assessed as zone of inhibition; format: functional
Aspergillus flavus = assay: Antimicrobial activity against Aspergillus flavus assessed as zone of inhibition; format: functional
Trichophyton rubrum = assay: Antifungal activity against Trichophyton rubrum assessed as diameter of zone inhibition; format: functional
Candida tropicalis = assay: Antifungal activity against Candida tropicalis assessed as zone of inhibition by disc diffusion method; format: functional
Aspergillus niger [13] = assay: Antifungal activity against Aspergillus niger assessed as zone of inhibition by disc diffusion method; format: functional
Cryptococcus neoformans = assay: Antifungal activity against Cryptococcus neoformans assessed as reduction in fungal growth incubated for 24 hrs by broth microdilution method; format: functional
Candida albicans [14] = assay: Antifungal activity against Candida albicans assessed as reduction in fungal growth incubated for 48 hrs by broth micro-dilution method; format: functional
Candida albicans [15] = assay: Antifungal activity against Candida albicans NRRL-Y477 assessed as zone of inhibition by disc diffusion method; format: functional
Botrytis cinerea = assay: Antifungal activity against Botrytis cinerea assessed as reduction in fungal growth at 50 ug/ml relative to control; format: functional
Phomopsis = assay: Antifungal activity against Phomopsis assessed as reduction in fungal growth at 50 ug/ml relative to control; format: functional
Botryosphaeria dothidea = assay: Antifungal activity against Botryosphaeria dothidea assessed as reduction in fungal growth at 50 ug/ml relative to control; format: functional
Aspergillus niger [16] = assay: Antifungal activity against Aspergillus niger MTCC 282 by disc diffusion method; format: functional, organism-based
Candida albicans [17] = assay: Antifungal activity against Candida albicans MTCC 227 by disc diffusion method; format: functional, organism-based
Aspergillus niger [18] = assay: Antifungal activity against Aspergillus niger assessed as diameter of zone inhibition; format: functional
Candida albicans [19] = assay: Antifungal activity against Candida albicans assessed as diameter of zone inhibition; format: functional

In the case of `CCc1nnc2c(Nc3ccc(C(=O)/C=C/c4ccc(C)cc4)cc3)nc3ccccc3n12`, the “inhibition zone (IZ)” value [1] is reported as 20 mm.

For `CCOc1ccccc1/N=N/c1c(N)nc2c(/N=N/c3ccccc3OCC)cnn2c1N`, the “inhibition zone (IZ)” value (Candida albicans [2]) was 21 mm.

In the case of `CCc1nnc2c(Nc3ccc(C(=O)/C=C/c4ccc(OC)cc4)cc3)nc3ccccc3n12`, the “inhibition zone (IZ)” value (Aspergillus fumigatus) is reported as 21 mm.

Work on `CCOC(=O)Cc1nc2c3[se]c4nc5c(nc4c3ncn2n1)c(C)nn5-c1ccccc1` yielded an MIC (Candida albicans [3]) of 8 µg/mL (≈ 16.3 µM) and an MIC (Geotrichum candidum) of 6 µg/mL (≈ 12.2 µM).

`Fc1ccc(-c2nnc3c4ccc(C(F)(F)F)nc4nc(-c4ccco4)n23)c(Cl)c1` showed an MIC (Candida albicans [4]) of 3.9 µg/mL (≈ 8.99 µM), an MIC (Candida albicans [5]) of 3.9 µg/mL (≈ 8.99 µM) and an MIC (Pichia kudriavzevii) of 3.9 µg/mL (≈ 8.99 µM). For the same compound, the MIC (Candida parapsilosis) was 3.9 µg/mL (≈ 8.99 µM), the MIC (Candida albicans [6]) was 3.9 µg/mL (≈ 8.99 µM) and the MIC (Candida albicans [7]) was 3.9 µg/mL (≈ 8.99 µM). It also gave an MIC (Candida albicans [8]) of 3.9 µg/mL (≈ 8.99 µM), an MIC (Nakaseomyces glabratus) of 3.9 µg/mL (≈ 8.99 µM) and an MIC (Candida albicans [9]) of 3.9 µg/mL (≈ 8.99 µM).

`O=c1ccc(=O)n(-c2nc(-c3ccc([N+](=O)[O-])cc3)cs2)[nH]1` showed an MIC (Candida albicans [10]) of 3.9 µg/mL (≈ 12.3 µM).

With `O=C1NC(=O)C(=C2NN=C(Nc3nnc(-c4cc([N+](=O)[O-])cc([N+](=O)[O-])c4)s3)S2)C(=O)N1` the “inhibition zone (IZ)” value (Aspergillus niger [11]) was 23 mm and the “inhibition zone (IZ)” value (Candida albicans [12]) was 25 mm.

For `Nc1ncc(C2=NC3=Nc4ccccc4C3=N2)c(N)n1`, the “inhibition zone (IZ)” value (Aspergillus flavus) was 18 mm.

For `CN(C)c1ccc(-c2cc(Br)c(O)nn2)cc1`, the “inhibition zone (IZ)” value (Trichophyton rubrum) was 15 mm.

With `CC1=NN(c2ccccc2)C2N=C3SCCN3C(c3ccc(O)cc3)C12` (configuration not stated) the “inhibition zone (IZ)” value (Candida tropicalis) was 26 mm and the “inhibition zone (IZ)” value (Aspergillus niger [13]) was 24 mm.

`Cc1nc(NC(=O)c2cc3ccccc3o2)c2c(C(F)(F)F)cc(-c3ccccc3)nc2n1` gave an MIC (Cryptococcus neoformans) of 12.5 µg/mL (≈ 27.9 µM).

Compound `Cc1nn(-c2ccccc2)c2nc3sc4c(c3nc12)N=C(N)COC4=O` has an MIC (Geotrichum candidum) of 4 µg/mL (≈ 11 µM).

`Cc1ccc(S(=O)(=O)Nc2nc(/N=N/c3c(N)nn4c(C)cc(C)nc34)cs2)cc1` showed an MIC (Candida albicans [14]) of 50 µg/mL (≈ 113 µM).

`Cc1ccc(S(=O)(=O)Nc2nc(/N=N/c3c(N)nn4c(-c5ccc([N+](=O)[O-])cc5)c(C#N)c(N)nc34)cs2)cc1` showed an MIC (Candida albicans [14]) of 25 µg/mL (≈ 43.4 µM).

`CCc1nnc2c(Nc3ccc(C4=NN(c5ccccc5)C(c5ccc(Cl)cc5)C4)cc3)nc3ccccc3n12` (configuration not stated) was tested, and the “inhibition zone (IZ)” value (Aspergillus fumigatus) was 21 mm.

In the case of `O=C(CSc1nc2sc3c(c2c(=O)n1-c1ccc(Cl)cc1)CCCC3)Nc1nc(-c2cccc(Br)c2)cs1`, the “inhibition zone (IZ)” value (Candida albicans [15]) is reported as 18 mm.

With `CCc1nnc2c(Nc3ccc(C4=NN(c5ccccc5)C(c5ccc(OC)cc5)C4)cc3)nc3ccccc3n12` (configuration not stated) the “inhibition zone (IZ)” value [1] was 21 mm.

`Cc1nc(Oc2ccc(C(=O)Nc3ccc(OC(F)(F)F)cc3)cc2)cc(C(F)(F)F)n1` was tested, and the inhibition at 50 µg/mL (Botrytis cinerea) was 96.7%, the inhibition at 50 µg/mL (Phomopsis) was 89% and the inhibition at 50 µg/mL (Botryosphaeria dothidea) was 93.1%.

With `CC(=O)N1N=C(C2=C(C)NC(=O)NC2c2ccc(F)cc2)OC1c1cccc([N+](=O)[O-])c1` (configuration not stated) the EC50 (Aspergillus niger [16]) was 0.16 µg/mL (≈ 0.364 µM) and the EC50 (Candida albicans [17]) was 0.16 µg/mL (≈ 0.364 µM).

For `Fc1ccc(-c2nnc3c4ccc(C(F)(F)F)nc4nc(-c4ccccc4)n23)c(Cl)c1`, the MIC (Candida albicans [4]) was 3.9 µg/mL (≈ 8.79 µM), the MIC (Candida albicans [5]) was 3.9 µg/mL (≈ 8.79 µM) and the MIC (Pichia kudriavzevii) was 3.9 µg/mL (≈ 8.79 µM). It also gave an MIC (Candida parapsilosis) of 3.9 µg/mL (≈ 8.79 µM), an MIC (Candida albicans [6]) of 3.9 µg/mL (≈ 8.79 µM) and an MIC (Candida albicans [7]) of 3.9 µg/mL (≈ 8.79 µM). For the same compound, the MIC (Candida albicans [8]) was 3.9 µg/mL (≈ 8.79 µM), the MIC (Nakaseomyces glabratus) was 3.9 µg/mL (≈ 8.79 µM) and the MIC (Candida albicans [9]) was 3.9 µg/mL (≈ 8.79 µM).

Work on `Cc1ccc(S(=O)(=O)Nc2nc(/N=N/c3c(N)nn4c(-c5ccc(Cl)cc5)c(C#N)c(N)nc34)cs2)cc1` yielded an MIC (Candida albicans [14]) of 100 µg/mL (≈ 177 µM).

`Cc1ccc(S(=O)(=O)Nc2nc(/N=N/c3c(N)nn4c(N)c(C#N)nnc34)cs2)cc1` showed an MIC (Candida albicans [14]) of 6.25 µg/mL (≈ 13.7 µM).

With `CC1=NN(c2ccccc2)C2N=C3SCCN3C(c3ccc(Cl)cc3)C12` (configuration not stated) the “inhibition zone (IZ)” value (Candida tropicalis) was 26 mm and the “inhibition zone (IZ)” value (Aspergillus niger [13]) was 24 mm.

In the case of `CCc1ccccc1/N=N/c1c(N)nn2c(-c3ccc(Cl)cc3)cc(-c3ccccc3)nc12`, the “inhibition zone (IZ)” value (Candida albicans [2]) is reported as 19 mm.

With `CCc1nnc2c(Nc3ccc(C4=NNC(c5ccc(Cl)cc5)C4)cc3)nc3ccccc3n12` (configuration not stated) the “inhibition zone (IZ)” value (Aspergillus fumigatus) was 22 mm.

With `COC(=O)Nc1nc2ccccc2[nH]1` [CARBENDAZIM] the EC50 (Candida albicans [17]) was 0.21 µg/mL (≈ 1.1 µM).

Compound `C[C@@H]1C[C@@H]([C@H](O)CC2CC(=O)NC(=O)C2)C(=O)[C@@H](C)C1` [CYCLOHEXIMIDE] has an MIC (Candida albicans [14]) of 3.12 µg/mL (≈ 11.1 µM).

`COC1=CC(=O)C[C@@H](C)[C@]12Oc1c(Cl)c(OC)cc(OC)c1C2=O` [GRISEOFULVIN] was tested, and the “inhibition zone (IZ)” value (Candida tropicalis) was 25 mm, the “inhibition zone (IZ)” value (Aspergillus niger [13]) was 22 mm and the MIC (Candida albicans [3]) was 500 µg/mL (≈ 1420 µM).

`Clc1ccc(COC(Cn2ccnc2)c2ccc(Cl)cc2Cl)c(Cl)c1` (configuration not stated) [MICONAZOLE] gave an MIC (Candida albicans [4]) of 0.39 µg/mL (≈ 0.937 µM), an MIC (Candida albicans [5]) of 0.39 µg/mL (≈ 0.937 µM) and an MIC (Pichia kudriavzevii) of 0.39 µg/mL (≈ 0.937 µM). For the same compound, the MIC (Candida parapsilosis) was 0.39 µg/mL (≈ 0.937 µM), the MIC (Candida albicans [6]) was 0.39 µg/mL (≈ 0.937 µM) and the MIC (Candida albicans [7]) was 0.39 µg/mL (≈ 0.937 µM). The MIC (Candida albicans [8]) was 0.39 µg/mL (≈ 0.937 µM), the MIC (Nakaseomyces glabratus) was 0.39 µg/mL (≈ 0.937 µM) and the MIC (Candida albicans [9]) was 0.39 µg/mL (≈ 0.937 µM).

In the case of `Cc1cc(C)nc(Nc2ccccc2)n1` [PYRIMETHANIL], the inhibition at 50 µg/mL (Botrytis cinerea) is reported as 82.8%, the inhibition at 50 µg/mL (Phomopsis) is reported as 85.1% and the inhibition at 50 µg/mL (Botryosphaeria dothidea) is reported as 84.4%.

For `Clc1ccc(C(Cn2ccnc2)OCc2csc3c(Cl)cccc23)c(Cl)c1` (configuration not stated) [SERTACONAZOLE], the “inhibition zone (IZ)” value (Aspergillus niger [18]) was 24 mm and the “inhibition zone (IZ)” value (Candida albicans [19]) was 20 mm.
